According to US11351185B2, “Use of isovalerylspiramycins as anti-cancer agents to inhibit metastasis” (priority 2020, dated 2022):
Several values for one entry are separate records, joined by “and”; a condition that tells them apart may be missing. Equal entries are not always repeated. Entries after “also recorded” stand apart in the source; their conditions may differ.

How the values were obtained:
[1] = tested on: SELH-deficient 786-O and RCC4 cells; assay: CCK8 assay in SELH-deficient (CRISPR/CAS9) RCC cells; assay type: cell-based; details: 786-O and RCC4 SELH knock out
Protocol: (§1) Cell viability was measured by Cell Counting Kit-8 (CCK-8, Dojindo Molecular Technologies, Tokyo, Japan). Cells were seeded in 96-well plates at a density of 3×10^3 cells/well and cultured for 24 hours before treatment with ISP I at different concentration. After treatment for a gradient ISP I concentration from 0 to 20 μg/ml for 48 hours, while control groups were only treated in PBS solution, 10 μl of CCK-8 solution were added to each well and cells were incubated for an additional 2 hours. The absorbance in each well at a wavelength of OD450 was detected by the Synergy H1 microplate reader, a product of BioTek (Winooski, Vt. USA).

[2] = tested on: renal cell carcinoma (RCC) cell lines ACHN, UM-RC-2, RCC4 and 786-O; assay: CCK8 cell viability assay, renal cell carcinoma cell lines; assay type: cell-based; details: 48 hours
Protocol: To confirm the cytotoxic effect observed in the glioblastoma cell lines, the inventors assessed ISP I's effect on renal cell carcinoma (RCC) cell lines (ACHN, UM-RC-2, RCC4 and 786-0). Cell viability was assessed similarly via CKK8 analysis. […] (FIG. 4C, D).
as §1

786-O tumors = assay: 786-O subcutaneous xenograft mouse model; assay type: in vivo, NSG mice; details: 35 mg/kg i.p. daily; 18 days after treatment
Protocol: For subcutaneous xenografts, NSG mice (6-8 weeks old) from the NCI-Frederick animal facility and Jackson Lab (Bar Harbor, Me. USA) were injected with 5×10^6 to 1×10^7 cells subcutaneously in the flank. One week later, the tumor-bearing mice were randomly assigned to different groups and made the tumor volume baseline equivalent and treated with normal saline or Zenomycin (35 mg/kg) everyday intraperitoneally. Tumors were measured using a caliper, and volume was calculated.

NRF2, HMOX1, NQO1 = assay: Real time RT-PCR of NRF2 and downstream genes; assay type: cell-based; details: for NRF2 expression (RT-PCR): 24 hours
Protocol: NRF2 (NFE2L2) is a transcription factor that regulates redox homeostasis by binding to the regulatory regions of antioxidant response elements (ARE). […] Glioblastoma (LN229 and U251) cells and RCC (786-O and RCC4) cells were treated with ISP I and evaluated for NRF2 expression levels. […] Considering this finding, the inventors evaluated SELH's regulatory role on NRF2 by measuring NRF2 expression in cells that either overexpressed or had silenced SELH expression.
Total RNA was extracted using PureLink RNA Mini Kit, a product of ThermoFisher Scientific (Waltham, Mass. USA), according manufacturer's protocol. First strand cDNA was synthesized with iScript cDNA Synthesis Kit, a product of Bio-Rad (Hercules, Calif. USA). Then the inventors performed real time PCR by SsoAdvanced Universal SYBR Green Supermix kit, a product of Bio-Rad, to quantify the expression levels of genes NRF2, HMOX1, and NQO1. The primer sequences are described in Liu et al., J. Nat'l Cancer Inst. 111: 1033 (2019). Data were analyzed and normalized to 18s rRNA as the reference gene for further statistics.

JNK2, POL1, TIF1A = assay: Western blot of JNK2 phosphorylation, POL1 and TIF1A; assay type: cell-based; details: LN229 cells
Protocol: (§2) SELH is localized in the nucleolus, which is a sensor of oxidative stress. Yang et al., Nature communications 7: 13599 (2016); Novoselov et al., J. Biol. Chem. 282: 11960 (2007). […] JNK2 activation by oxidative stress inactivated RNA polymerase I (POL1) transcription factor TIF1A in the nucleoli to down-regulate rRNA synthesis. Mayer et al., Genes Dev. 19: 933 (2005). To investigate whether the ribosomal biogenesis was disrupted by ISP I, pre-rRNA transcription was evaluated using real-time RT-PCR analysis in LN229 cells. […] To examine the mechanisms by which ISP I disrupts POL1 transcription, the inventors initially evaluated JNK2 activity and the overall state of the transcription machinery in ISP I-treated LN229 cells.
Western blotting was performed to detect the protein expression level of SELH, NRF2 and γH2AX regulated by ISP I. The cells were lysed by RIPA buffer from ThermoFisher Scientific, and the concentration was measured using DC Protein Assay, a Bio-Rad product. Equal amounts of protein of each sample were loaded for gel electrophoresis and were transferred to nitrocellulose membrane, blocked and incubated overnight at 4° C. with primary antibodies. Then the membranes were washed with TBST (3 times, 10 min each). Exposure, imaging, and data analysis were done using a KwikQuant Imager system, a product of Kindle Biosciences (Greenwich, Conn. USA). […]

[3] = tested on: in vivo cancer parameters; details: animal models; cited from earlier work
POL1 occupancy on rDNA = assay: Chromatin immunoprecipitation (CHIP) assay; assay type: cell-based; details: LN229 cells
Protocol: as §2
ChIP assays were performed using a SimpleCHIP Enzymatic Chromatin IP Kit (Magnetic beads) following the manufacturer's instructions (Cell Signaling Technology; catalog 9003). Cross-linked protein-DNA complexes were precipitated by incubating with rabbit anti-POL1A (CST; 24799s) or rabbit IgG (negative control) overnight and then with magnetic beads for 2 hours. Purified DNA fragments, […], were analyzed quantitatively by real-time PCR with primers against the rDNA promoter and gene body, following the standard-curve method. The standard curves were created by serial dilution of 2% input chromatin DNA. […]

Compound: COC1C(O)CC(=O)OC(C)CC=CC=CC(OC2CCC(N(C)C)C(C)O2)C(C)CC(CC=O)C1OC1OC(C)C(OC2CC(C)(O)C(OC(=O)CC(C)C)C(C)O2)C(N(C)C)C1O (stereo not drawn) [ISP I, 4″-isolvalerylspiramycin I]
- sensitivity of SELH-deficient cells vs wild type (CCK8) [1]: resistance to ISP I; also recorded: SELH-deficient cells were resistant to ISP I treatment
- cytotoxic effect on RCC cell lines [2]: demonstrated a cytotoxic effect
- most / least sensitive RCC cell line to cytotoxic effect ([2]; ACHN, UM-RC-2, RCC4, 786-O): ACHN appeared to be the most sensitive and 786-O demonstrated to be the least sensitive
- tumor size, weight and burden (786-O tumors): reduced 786-O tumor burden; also recorded: significantly reduced tumor size and weight
- expression of NRF2 downstream genes HMOX1 and NQO1 (NRF2, HMOX1, NQO1; 786-O and RCC4): increase in expression of the NRF2 downstream genes HMOX1 and NQO1; also recorded: significant increase in the downstream targets of NRF2 signaling
- NRF2 expression (RT-PCR) (NRF2, HMOX1, NQO1; 786-O and RCC4, 10 μg/ml): increase in NRF2 expression; also recorded: NRF2 expression was significantly upregulated
- expression of NRF2 downstream genes HMOX1 and NQO1 (NRF2, HMOX1, NQO1; LN229 and U251): increase of the expression of NRF2 downstream genes HMOX1 and NQO1; also recorded: significant increase in the downstream targets of NRF2 signaling
- NRF2 expression (RT-PCR) (NRF2, HMOX1, NQO1; LN229 and U251, 10 μg/mL): increase in NRF2 expression; also recorded: NRF2 expression was significantly upregulated
- JNK phosphorylation (western blot) (JNK2, POL1, TIF1A): increased JNK2 phosphorylation; also recorded: JNK1 phosphorylation increased
- POL1 and TIF1A expression (western blot) (JNK2, POL1, TIF1A): slightly reducing POL1 and TIF1A expression in a dose-dependent manner; also recorded: expression of POL1 and TIF1A slightly decreased
- in vivo cancer parameters such as tumor growth rate and relative tumor volume [3]: reduction
- POL1 recruitment / occupancy on rDNA (CHIP) (POL1 occupancy on rDNA): reduces the occupancy of POL1 on rNDA; also recorded: significantly reduced POL1 recruitment to the promoter coding regions of rDNA
